ChEMBL document CHEMBL1201862, “PubChem BioAssay data set” (2004)
Activity calls are given as the source filed them.

What was measured:
[1] = target: Runt-related transcription factor 1/Core-binding factor subunit beta (Homo sapiens, UniProt Q01196+Q13951); test: Confirmation of compounds inhibiting the binding between the RUNX1 Runt domain and CBFb-SMMHC via a fluorescence resonance energy transfer (FRET) assay. [Related pubchem assays (depositor defined):AID1434, AID1438, AID1496, AID1550, AID1645]; type: protein assay
Runt-related transcription factor 1/Core-binding factor subunit beta, sequence (Q01196 whole entry, the tested form may be a part): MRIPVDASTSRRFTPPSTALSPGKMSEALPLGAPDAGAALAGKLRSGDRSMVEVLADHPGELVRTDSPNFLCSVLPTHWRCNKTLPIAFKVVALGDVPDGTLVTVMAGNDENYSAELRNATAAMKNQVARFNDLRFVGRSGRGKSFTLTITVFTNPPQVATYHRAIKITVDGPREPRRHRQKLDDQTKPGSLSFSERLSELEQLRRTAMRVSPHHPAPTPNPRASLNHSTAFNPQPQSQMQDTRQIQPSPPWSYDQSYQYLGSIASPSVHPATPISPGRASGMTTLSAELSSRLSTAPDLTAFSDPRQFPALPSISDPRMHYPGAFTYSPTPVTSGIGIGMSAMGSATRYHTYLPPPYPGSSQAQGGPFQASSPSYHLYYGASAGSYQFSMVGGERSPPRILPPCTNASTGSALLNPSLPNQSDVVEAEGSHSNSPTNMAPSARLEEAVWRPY
Runt-related transcription factor 1/Core-binding factor subunit beta, sequence (Q13951 whole entry, the tested form may be a part): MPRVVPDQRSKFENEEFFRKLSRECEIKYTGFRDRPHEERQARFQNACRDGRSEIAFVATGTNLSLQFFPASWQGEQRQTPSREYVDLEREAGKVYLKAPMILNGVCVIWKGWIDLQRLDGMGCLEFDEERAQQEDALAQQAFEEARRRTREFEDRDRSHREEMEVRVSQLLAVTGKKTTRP

[2] = target: T1, Tyrosine-protein phosphatase non-receptor type 7 (Homo sapiens, UniProt P35236); type: functional
T1 sequence (P35236 whole entry): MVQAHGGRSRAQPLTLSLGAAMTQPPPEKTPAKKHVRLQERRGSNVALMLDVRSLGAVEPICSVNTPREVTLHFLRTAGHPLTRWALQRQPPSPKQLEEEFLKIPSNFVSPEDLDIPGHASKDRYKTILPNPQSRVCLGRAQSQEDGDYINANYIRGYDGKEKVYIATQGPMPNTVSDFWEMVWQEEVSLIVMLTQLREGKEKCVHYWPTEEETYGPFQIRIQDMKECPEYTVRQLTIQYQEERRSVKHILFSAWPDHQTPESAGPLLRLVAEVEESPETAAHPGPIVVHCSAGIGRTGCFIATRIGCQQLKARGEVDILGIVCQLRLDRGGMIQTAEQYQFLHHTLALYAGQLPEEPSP

[3] = target: T2, Tyrosine-protein phosphatase non-receptor type 22 (Homo sapiens, UniProt Q9Y2R2); type: functional
T2 sequence (Q9Y2R2 whole entry): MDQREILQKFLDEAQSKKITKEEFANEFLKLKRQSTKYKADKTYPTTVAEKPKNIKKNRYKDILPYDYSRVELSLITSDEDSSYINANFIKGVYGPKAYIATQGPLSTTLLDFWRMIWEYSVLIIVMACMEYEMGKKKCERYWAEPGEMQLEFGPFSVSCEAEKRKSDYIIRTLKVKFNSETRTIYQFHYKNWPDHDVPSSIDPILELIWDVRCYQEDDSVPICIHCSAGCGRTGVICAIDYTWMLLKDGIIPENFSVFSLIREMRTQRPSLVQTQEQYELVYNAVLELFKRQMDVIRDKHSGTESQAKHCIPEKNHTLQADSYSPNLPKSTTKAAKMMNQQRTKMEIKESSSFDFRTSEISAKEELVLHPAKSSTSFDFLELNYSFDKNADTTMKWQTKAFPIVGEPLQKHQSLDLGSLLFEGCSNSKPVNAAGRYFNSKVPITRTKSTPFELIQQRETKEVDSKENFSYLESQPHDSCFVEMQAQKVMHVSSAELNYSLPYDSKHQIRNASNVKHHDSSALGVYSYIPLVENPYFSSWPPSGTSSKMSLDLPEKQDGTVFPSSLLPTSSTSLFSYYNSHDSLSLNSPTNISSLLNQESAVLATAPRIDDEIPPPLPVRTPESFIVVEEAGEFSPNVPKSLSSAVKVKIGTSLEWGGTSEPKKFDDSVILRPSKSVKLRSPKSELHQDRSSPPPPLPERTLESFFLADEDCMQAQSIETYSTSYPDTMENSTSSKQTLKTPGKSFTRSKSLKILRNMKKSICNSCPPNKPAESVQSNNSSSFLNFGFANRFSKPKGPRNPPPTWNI

[4] = target: T2, Tyrosine-protein phosphatase non-receptor type 22; type: functional; remark: listed apart in the source
Large T antigen = Large T antigen (Simian virus 40, UniProt P03070); type: functional, Betapolyomavirus macacae;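 note: Confirmatory-stage PubChem screen for compounds that inhibit SV40 T antigen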
Large T antigen, sequence (P03070 whole entry): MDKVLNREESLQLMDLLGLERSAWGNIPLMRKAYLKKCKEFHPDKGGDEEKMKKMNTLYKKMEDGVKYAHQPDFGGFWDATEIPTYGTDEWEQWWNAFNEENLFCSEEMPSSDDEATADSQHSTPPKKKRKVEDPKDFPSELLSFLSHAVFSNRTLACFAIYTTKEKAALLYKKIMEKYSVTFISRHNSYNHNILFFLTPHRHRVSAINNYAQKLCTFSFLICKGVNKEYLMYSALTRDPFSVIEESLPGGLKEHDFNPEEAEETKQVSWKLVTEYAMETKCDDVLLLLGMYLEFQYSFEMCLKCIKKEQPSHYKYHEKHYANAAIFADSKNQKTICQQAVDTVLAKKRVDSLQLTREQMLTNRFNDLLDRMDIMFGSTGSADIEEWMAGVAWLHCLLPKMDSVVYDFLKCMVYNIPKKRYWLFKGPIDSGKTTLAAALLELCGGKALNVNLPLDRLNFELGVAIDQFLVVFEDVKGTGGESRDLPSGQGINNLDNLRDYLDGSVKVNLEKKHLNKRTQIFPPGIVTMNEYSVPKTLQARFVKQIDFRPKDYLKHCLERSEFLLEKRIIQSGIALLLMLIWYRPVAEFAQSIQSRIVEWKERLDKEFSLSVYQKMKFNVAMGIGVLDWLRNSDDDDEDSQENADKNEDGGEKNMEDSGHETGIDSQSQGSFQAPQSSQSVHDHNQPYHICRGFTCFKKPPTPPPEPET

[5] = target: Induced myeloid leukemia cell differentiation protein Mcl-1 (Homo sapiens, UniProt Q07820); type: functional
Induced myeloid leukemia cell differentiation protein Mcl-1, sequence (Q07820 whole entry): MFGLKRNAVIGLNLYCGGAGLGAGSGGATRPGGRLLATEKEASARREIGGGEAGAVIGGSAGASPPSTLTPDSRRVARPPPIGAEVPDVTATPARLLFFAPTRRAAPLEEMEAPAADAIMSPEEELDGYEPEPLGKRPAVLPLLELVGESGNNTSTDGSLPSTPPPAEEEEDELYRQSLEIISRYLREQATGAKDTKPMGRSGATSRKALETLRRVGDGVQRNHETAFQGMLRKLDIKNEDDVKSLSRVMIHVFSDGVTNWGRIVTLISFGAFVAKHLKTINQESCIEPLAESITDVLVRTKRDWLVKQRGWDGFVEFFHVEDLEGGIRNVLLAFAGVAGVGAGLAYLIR

[6] = target: Intestinal-type alkaline phosphatase (Homo sapiens, UniProt P09923); test: activation of human intestinal alkaline phosphatase – biochemical, dose response (AID 488873); type: functional
Intestinal-type alkaline phosphatase (Homo sapiens, UniProt P09923), sequence (P09923 whole entry): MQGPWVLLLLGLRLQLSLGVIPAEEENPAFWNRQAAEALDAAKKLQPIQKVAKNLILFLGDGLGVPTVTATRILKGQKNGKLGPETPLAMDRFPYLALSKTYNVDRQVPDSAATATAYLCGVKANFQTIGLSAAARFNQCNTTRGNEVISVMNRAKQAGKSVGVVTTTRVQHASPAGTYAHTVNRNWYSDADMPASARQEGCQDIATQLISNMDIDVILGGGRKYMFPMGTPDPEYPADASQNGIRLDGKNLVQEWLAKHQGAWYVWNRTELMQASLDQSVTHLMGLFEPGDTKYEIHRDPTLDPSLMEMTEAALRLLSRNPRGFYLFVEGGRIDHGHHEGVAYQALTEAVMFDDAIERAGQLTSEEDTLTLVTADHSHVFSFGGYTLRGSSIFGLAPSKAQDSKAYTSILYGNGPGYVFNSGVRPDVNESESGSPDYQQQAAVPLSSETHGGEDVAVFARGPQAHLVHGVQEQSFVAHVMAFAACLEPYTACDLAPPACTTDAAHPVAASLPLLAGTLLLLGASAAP

[7] = target: Intestinal-type alkaline phosphatase (Mus musculus, UniProt P24822); test: mouse intestinal alkaline phosphatase activators, dose response, biochemical, luminescence, uHTS hits (AID 488783); type: functional
Intestinal-type alkaline phosphatase (Mus musculus, UniProt P24822), sequence (P24822 whole entry): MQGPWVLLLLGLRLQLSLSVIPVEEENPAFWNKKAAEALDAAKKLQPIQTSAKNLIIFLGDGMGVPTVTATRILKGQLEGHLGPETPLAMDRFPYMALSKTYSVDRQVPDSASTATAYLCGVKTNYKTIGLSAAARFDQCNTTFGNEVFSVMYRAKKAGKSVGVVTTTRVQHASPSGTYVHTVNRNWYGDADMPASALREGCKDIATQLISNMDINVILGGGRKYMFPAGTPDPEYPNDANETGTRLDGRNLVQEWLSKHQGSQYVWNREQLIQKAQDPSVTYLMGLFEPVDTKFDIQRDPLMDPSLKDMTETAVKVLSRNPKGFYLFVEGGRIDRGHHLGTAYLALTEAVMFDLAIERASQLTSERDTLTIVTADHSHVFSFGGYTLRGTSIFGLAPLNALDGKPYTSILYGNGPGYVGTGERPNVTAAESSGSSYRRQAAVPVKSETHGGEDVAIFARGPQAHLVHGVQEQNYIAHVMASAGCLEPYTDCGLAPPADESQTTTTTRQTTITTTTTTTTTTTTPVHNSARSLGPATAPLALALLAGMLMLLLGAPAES

[8] = target: T3, Alkaline phosphatase, tissue-nonspecific isozyme (Homo sapiens, UniProt P05186); test: activation of tissue-nonspecific alkaline phosphatase – biochemical, TNAP isozyme, mouse IAP uHTS hits, selectivity assay for mouse IAP activator project, dose response (AID 488880); type: functional
T3 sequence (P05186 whole entry): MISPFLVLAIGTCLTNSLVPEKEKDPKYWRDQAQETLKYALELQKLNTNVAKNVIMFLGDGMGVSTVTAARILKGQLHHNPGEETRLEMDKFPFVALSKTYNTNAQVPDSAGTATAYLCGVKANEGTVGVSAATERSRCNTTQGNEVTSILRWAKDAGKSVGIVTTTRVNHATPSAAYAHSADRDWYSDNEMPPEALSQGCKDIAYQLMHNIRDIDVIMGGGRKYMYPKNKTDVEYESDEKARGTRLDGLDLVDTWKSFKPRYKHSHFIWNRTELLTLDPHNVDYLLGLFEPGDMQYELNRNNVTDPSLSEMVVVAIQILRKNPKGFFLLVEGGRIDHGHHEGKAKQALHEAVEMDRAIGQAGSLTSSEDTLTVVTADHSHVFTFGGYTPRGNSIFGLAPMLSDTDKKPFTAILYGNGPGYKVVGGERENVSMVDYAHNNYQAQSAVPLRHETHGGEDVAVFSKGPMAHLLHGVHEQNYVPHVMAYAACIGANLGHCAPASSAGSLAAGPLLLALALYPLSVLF

[9] = target: T4, DNA dC->dU-editing enzyme APOBEC-3A (Homo sapiens, UniProt P31941); test: SAR analysis of small molecule inhibitors of APOBEC3A DNA Deaminase via a fluorescence-based single-stranded DNA deaminase assay - Set 2.; type: functional; settings: read-out: IC50_Mean
T4 sequence (P31941 whole entry): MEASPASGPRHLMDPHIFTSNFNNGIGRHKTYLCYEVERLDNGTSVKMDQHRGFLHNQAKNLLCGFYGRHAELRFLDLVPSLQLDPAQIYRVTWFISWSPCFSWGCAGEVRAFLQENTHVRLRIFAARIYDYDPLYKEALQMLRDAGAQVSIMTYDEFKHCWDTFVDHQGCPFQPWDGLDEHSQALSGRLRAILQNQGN

[10] = target: T5, DNA dC->dU-editing enzyme APOBEC-3G (Homo sapiens, UniProt Q9HC16); test: SAR analysis of small molecule inhibitors of APOBEC3G DNA Deaminase via a fluorescence-based single-stranded DNA deaminase assay - Set 2.; type: functional; settings: read-out: IC50_Mean
T5 sequence (Q9HC16 whole entry): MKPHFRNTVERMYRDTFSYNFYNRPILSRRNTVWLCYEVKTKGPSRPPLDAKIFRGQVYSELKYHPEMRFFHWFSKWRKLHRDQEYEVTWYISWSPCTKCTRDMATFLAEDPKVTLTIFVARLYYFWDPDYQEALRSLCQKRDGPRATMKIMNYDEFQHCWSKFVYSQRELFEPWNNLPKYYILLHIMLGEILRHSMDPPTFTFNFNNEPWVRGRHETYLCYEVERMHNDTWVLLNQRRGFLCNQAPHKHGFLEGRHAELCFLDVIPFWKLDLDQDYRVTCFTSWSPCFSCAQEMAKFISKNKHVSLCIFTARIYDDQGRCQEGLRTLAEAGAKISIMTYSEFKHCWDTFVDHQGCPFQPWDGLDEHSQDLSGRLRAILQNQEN

[11] = target: T5, DNA dC->dU-editing enzyme APOBEC-3G; test: inhibition of APOBEC3G ssDNA deamination – biochemical, fluorescence, single-stranded DNA substrate, SAR follow-up (AID 602136); type: functional; settings: read-out: IC50_Mean
[12] = target: T4, DNA dC->dU-editing enzyme APOBEC-3A; test: SAR analysis of small molecule inhibitors of APOBEC3A DNA Deaminase via a fluorescence-based single-stranded DNA deaminase assay.; type: functional; settings: read-out: IC50_Mean

CCc1ccc(S(=O)(=O)Nc2ccc(-c3nc4cccnc4s3)cc2)s1 was tested, and the IC50 [1] was > 100 µM (inactive).

N/C(=N\N=C\c1ccc2c(c1)OCO2)SC1CC(=O)N(c2ccc(C(=O)O)cc2)C1=O (stereo not drawn) was tested, and the IC50 [2] was 7.33 µM (active), the IC50 [3] was 7.65 µM (active) and the IC50 [4] was 8.58 µM (active).

O=C1NC(=S)NC(=O)C1=Cc1ccc2c(c1)CCN2CCCCl was tested, and the IC50 (Large T antigen) was 28.8 µM (active), the IC50 [5] was > 54 µM (active) and the EC50 [6] was 96.3 µM (active). The EC50 [7] was 76.6 µM (active), the EC50 [8] was 55.5 µM (active) and the IC50 [9] was 6.63 µM (active). The IC50 [10] was 4.14 µM (active), the IC50 [11] was 2.91 µM (active) and the IC50 [12] was 9.27 µM (active).
